Assay results reported in patent US10375956B2, “Herbicidally active 2-(substituted-phenyl)-cyclopentane-1,3-dione compounds and derivatives thereof” (Syngenta Limited, priority 2013, dated 2019).

How the values were obtained:
Format in all cases: in vivo
[1] = test system: Echinochloa crus-galli (ECHCG); experiment: Test 1 glasshouse assay, pre-emergence herbicidal activity; conditions: 312 h, visual evaluation after 13 days, read-out: Percentage phytotoxicity ECHCG
How it was run: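 Pots are sprayed pre-emergence, one day after sowing, with the technical active ingredient in an acetone/water mixture containing 0.5% Tween 20. After 13 days under controlled glasshouse conditions, damage is rated visually as percent phytotoxicity.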

[2] = test system: Panicum miliaceum (PANMI); experiment: Test 2 glasshouse assay (IF50 formulation, X-77), pre-emergence herbicidal activity; conditions: 480 h, 250 g/ha, 20DAA, read-out: Percentage phytotoxicity PANMI
Method: (§1) Seeds of a variety of monocotyledonous and dicotyledonous test plants are sown in standard soil in pots. The plants are cultivated for one day (for pre-emergence) or for about 12 days (for post-emergence) under controlled conditions in a glasshouse (warm climate species at 24/18° C., cool climate species at 20/16° C., both at day/night; 16 hours light; 65% humidity).
(§2) An “instant formulation”, known as the “IF50”, containing 50 g/liter (i.e. 5% w/v) of the “technical” (i.e. unformulated) active ingredient is prepared by dissolving the active ingredient in a mixture of organic solvents and emulsifier, details of which are provided in the Table below. This IF50 is then mixed with a small, variable amount of acetone to aid dissolution, before addition of a 0.2% v/v aqueous solution of the adjuvant X-77 (which is a mixture of alkyl aryl polyoxyethylene glycols and free fatty acids in isopropanol, CAS Registry number 11097-66-8), as the aqueous diluent, to form an aqueous spray solution which contains a predetermined concentration of the active ingredient (which varies depending on the application rate of the active ingredient to the plants) and 0.2% v/v of the adjuvant X-77. This aqueous spray solution is then sprayed onto the plants, after one day's cultivation (for pre-emergence), or after about 12 days' cultivation (range=10-13 days) (for post-emergence).
(§3) The test plants are then grown on, in a glasshouse (greenhouse) under controlled conditions (warm climate species at 24/18° C., cool climate species at 20/16° C., both at day/night; 16 hours light; 65% humidity) and are watered twice daily. 15 days after application of the test herbicide (15DAA) (for post-emergence), and 20 days after application of the test herbicide (20DAA) (for pre-emergence), the test plants are evaluated visually, and an assessed percentage phytotoxicity score is given for each herbicidal application on each plant species (with 100%=total damage to plant; 0%=no damage to plant).
(§4) Warm climate (“warm season”) grassy monocotyledonous weeds: Setaria faberi (SETFA), Panicum miliaceum (PANMI), Sorghum vulgare Pers. (SORVU) (or Sorghum bicolor (L) Moench ssp. Bicolor), Digitaria sanguinalis (DIGSA), Echinochloa crus-galli (ECHCG), and Brachiaria plantaginea (BRAPL).

[3] = test system: Sorghum vulgare Pers. (SORVU); experiment: as above; conditions: Sorghum bicolor, 480 h, 250 g/ha, 20DAA, read-out: Percentage phytotoxicity SORVU
Method: as §1, §2, §3, §4

Setaria faberi (SETFA) [4] = experiment: as above; conditions: 480 h, 250 g/ha, 20DAA, read-out: Percentage phytotoxicity SETFA
Method: as §1, §2, §3, §4

[5] = test system: Digitaria sanguinalis (DIGSA); experiment: as above; conditions: 480 h, 250 g/ha, 20DAA, read-out: Percentage phytotoxicity DIGSA
Method: as §1, §2, §3, §4

[6] = test system: Echinochloa crus-galli (ECHCG); experiment: as above; conditions: 480 h, 250 g/ha, 20DAA, read-out: Percentage phytotoxicity ECHCG
Method: as §1, §2, §3, §4

[7] = test system: Brachiaria plantaginea (BRAPL); experiment: as above; conditions: Urochloa plantaginea, 480 h, 250 g/ha, 20DAA, read-out: Percentage phytotoxicity BRAPL
Method: as §1, §2, §3, §4

[8] = test system: Panicum miliaceum (PANMI); experiment: Test 2 glasshouse assay (IF50 formulation, X-77), post-emergence herbicidal activity; conditions: 360 h, 15 DAA, visual score, read-out: Post-emergence herbicidal activity (percentage phytotoxicity) PANMI; for pest or weed control at 30 g/ha: application rate 30 g/ha; for pest or weed control at 125 g/ha: application rate 125 g/ha
Method: as §1, §2, §3, §4

[9] = test system: Sorghum vulgare Pers. (SORVU); experiment: as above; conditions: Sorghum bicolor, 360 h, 15 DAA, visual score, read-out: Post-emergence herbicidal activity (percentage phytotoxicity) SORVU; for pest or weed control at 30 g/ha: application rate 30 g/ha; for pest or weed control at 125 g/ha: application rate 125 g/ha
Method: as §1, §2, §3, §4

Setaria faberi (SETFA) [10] = experiment: as above; conditions: 360 h, 15 DAA, visual score, read-out: Post-emergence herbicidal activity (percentage phytotoxicity) SETFA; for pest or weed control at 30 g/ha: application rate 30 g/ha; for pest or weed control at 125 g/ha: application rate 125 g/ha
Method: as §1, §2, §3, §4

[11] = test system: Digitaria sanguinalis (DIGSA); experiment: as above; conditions: 360 h, 15 DAA, visual score, read-out: Post-emergence herbicidal activity (percentage phytotoxicity) DIGSA; for pest or weed control at 30 g/ha: application rate 30 g/ha; for pest or weed control at 125 g/ha: application rate 125 g/ha
Method: as §1, §2, §3, §4

[12] = test system: Echinochloa crus-galli (ECHCG); experiment: as above; conditions: 360 h, 15 DAA, visual score, read-out: Post-emergence herbicidal activity (percentage phytotoxicity) ECHCG; for pest or weed control at 30 g/ha: application rate 30 g/ha; for pest or weed control at 125 g/ha: application rate 125 g/ha
Method: as §1, §2, §3, §4

[13] = test system: Brachiaria plantaginea (BRAPL); experiment: as above; conditions: Urochloa plantaginea, 360 h, 15 DAA, visual score, read-out: Post-emergence herbicidal activity (percentage phytotoxicity) BRAPL; for pest or weed control at 30 g/ha: application rate 30 g/ha; for pest or weed control at 125 g/ha: application rate 125 g/ha
Method: as §1, §2, §3, §4

[14] = test system: Alopecurus myosuroides (ALOMY); experiment: as above; conditions: 360 h, 15 DAA, visual score, read-out: Post-emergence herbicidal activity (percentage phytotoxicity) ALOMY; for pest or weed control at 30 g/ha: application rate 30 g/ha; for pest or weed control at 125 g/ha: application rate 125 g/ha
Method: as §1, §2, §3
Cool climate (“cool season”) grassy monocotyledonous weeds: Alopecurus myosuroides (ALOMY), Avena fatua (AVEFA), Lolium perenne (LOLPE).

SMILES | pest or weed control at 250 g/ha [1] [%] | pest or weed control at 250 g/ha [2] [%] | pest or weed control at 250 g/ha [3] [%] | pest or weed control at 250 g/ha (Setaria faberi (SETFA) [4]) [%] | pest or weed control at 250 g/ha [5] [%] | pest or weed control at 250 g/ha [6] [%] | pest or weed control at 250 g/ha [7] [%] | pest or weed control at 30 g/ha [8] [%] | pest or weed control at 30 g/ha [9] [%] | pest or weed control at 30 g/ha (Setaria faberi (SETFA) [10]) [%] | pest or weed control at 30 g/ha [11] [%] | pest or weed control at 30 g/ha [12] [%] | pest or weed control at 30 g/ha [13] [%] | pest or weed control at 30 g/ha [14] [%] | pest or weed control at 125 g/ha [8] [%] | pest or weed control at 125 g/ha [9] [%] | pest or weed control at 125 g/ha (Setaria faberi (SETFA) [10]) [%] | pest or weed control at 125 g/ha [11] [%] | pest or weed control at 125 g/ha [12] [%] | pest or weed control at 125 g/ha [13] [%] | also measured
C#CCC1CC(=O)C(c2c(Cl)cc(-c3ccc(Cl)cc3)cc2OC)C1=O (centres unmarked) [Compound A11, 2-[2-chloro-4-(4-chlorophenyl)-6-methoxyphenyl]-4-prop-2-ynylcyclopentane-1,3-dione] | 100 | 60 | 80 | 90 | 90 | 70 | 100 | 100 | 100 | 80 | 100 | 100 | 100 | 30 | – | – | – | – | – | – | pest or weed control at 250 g/ha ([8]; application rate 250 g/ha): 100%; pest or weed control at 250 g/ha ([9]; application rate 250 g/ha): 100%; pest or weed control at 250 g/ha (Setaria faberi (SETFA) [10]; application rate 250 g/ha): 100%; pest or weed control at 250 g/ha ([11]; application rate 250 g/ha): 100%; pest or weed control at 250 g/ha ([12]; application rate 250 g/ha): 100%; pest or weed control at 250 g/ha ([13]; application rate 250 g/ha): 100%; pest or weed control at 250 g/ha ([14]; application rate 250 g/ha): 70%
C#CCC1CC(=O)C(c2c(Cl)cc(-c3ccc(F)cc3F)cc2OC)C1=O (centres unmarked) [Compound A12] | 100 | 100 | 90 | 100 | 100 | 80 | 100 | 70 | 90 | 20 | 70 | 70 | 70 | 60 | 100 | 100 | 100 | 100 | 100 | 100 | pest or weed control at 125 g/ha [14]: 80%
C#CCC1CC(=O)C(c2c(Cl)cc(-c3ccc(F)c(F)c3)cc2OC)C1=O (centres unmarked) [Compound A13] | 100 | 100 | 100 | 100 | 100 | 100 | 100 | 100 | 100 | 100 | 100 | 100 | 90 | 30 | 100 | 100 | 100 | 100 | 100 | 100 | pest or weed control at 125 g/ha [14]: 100%
C#CCC1CC(=O)C(c2c(F)cc(-c3ccc(Cl)cc3)cc2OC)C1=O (centres unmarked) [Compound A14] | 100 | 100 | 90 | 100 | 100 | 80 | 100 | – | – | – | – | – | – | – | 60 | 100 | 90 | 100 | 100 | 30 | pest or weed control at 125 g/ha [14]: 60%
C#CCC1CC(=O)C(c2c(F)cc(-c3ccc(F)c(F)c3)cc2OC)C1=O (centres unmarked) [Compound A22] | 100 | 80 | 70 | 90 | 90 | 70 | 90 | 60 | 70 | 80 | 70 | 70 | 90 | 50 | 100 | 100 | 100 | 100 | 100 | 100 | pest or weed control at 125 g/ha [14]: 70%
C#CCC1CC(=O)C(c2c(CC)cc(C)cc2CC)C1=O (centres unmarked) [Compound A25, 2-(2,6-diethyl-4-methyl-phenyl)-4-(prop-2-ynyl)-cyclopentane-1,3-dione] | 100 | 90 | 90 | 80 | 100 | 100 | 100 | 100 | 100 | 90 | 100 | 100 | 100 | 50 | 100 | 100 | 100 | 100 | 100 | 100 | pest or weed control at 125 g/ha [14]: 80%
